In ChEMBL document CHEMBL1151560, “Nonpeptide glycoprotein IIb/IIIa inhibitors: 18. Indole alpha-sulfonamide acids are potent inhibitors of platelet aggregation” (Bioorg Med Chem Lett, 1997) one finds IC50, ED50 and Binding data, which are given here for 17 compounds.

The species entered for one data set is Homo sapiens. Kind of data set: Inhibition of ADP-induced platelet aggregation in human gel-filtered platelets. Type of data set: functional.
In data set [1] the target is Integrin alpha-IIb/beta-3 (Homo sapiens) (UniProt P05106+P08514). Briefly: Evaluated for competitive binding against fibrinogen receptor antagonist [125I]-L-692,884 to purified alpha IIb beta-3 integrin activated by coating onto yttrium silicate Scintillation Proximity Assay Fluomicrospheres (SPA-A assay). It is filed as protein-complex assay. (In general: SPA uses beads or plates that emit light when radiolabelled molecules are held near them.)

Data set [2] addresses T1, Albumin (Homo sapiens, UniProt P02768). Kind of data set: Protein Binding Assay measures the ability of a compound to bind to human albumin in pH 7.4 buffer.
The target of data set [3] is T1, Albumin. Briefly: Protein Binding Assay measures the ability of a compound to bind to human albumin in pH 7.4 buffer.; not soluble.

T1 sequence (P02768 whole entry): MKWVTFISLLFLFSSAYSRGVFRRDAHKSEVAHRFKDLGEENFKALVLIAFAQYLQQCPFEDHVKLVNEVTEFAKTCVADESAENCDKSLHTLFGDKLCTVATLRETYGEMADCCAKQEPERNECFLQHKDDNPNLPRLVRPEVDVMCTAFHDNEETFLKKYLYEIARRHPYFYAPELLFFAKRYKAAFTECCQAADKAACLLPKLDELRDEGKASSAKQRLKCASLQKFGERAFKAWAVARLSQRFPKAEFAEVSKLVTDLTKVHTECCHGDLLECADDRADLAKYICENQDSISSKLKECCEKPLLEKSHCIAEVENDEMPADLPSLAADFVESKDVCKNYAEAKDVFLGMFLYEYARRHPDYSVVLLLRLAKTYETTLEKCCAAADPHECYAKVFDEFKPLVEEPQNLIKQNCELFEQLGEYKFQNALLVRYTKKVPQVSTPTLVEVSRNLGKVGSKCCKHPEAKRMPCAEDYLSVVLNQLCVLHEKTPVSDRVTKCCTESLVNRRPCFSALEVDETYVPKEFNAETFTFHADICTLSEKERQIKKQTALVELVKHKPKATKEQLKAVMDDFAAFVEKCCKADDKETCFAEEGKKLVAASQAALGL

In general, IC50 refers to the concentration that inhibits the measured activity by half. A low value points to greater potency in that assay. As to `O=C(NC[C@H](NS(=O)(=O)c1ccccc1)C(=O)O)c1cc2cc(OCCN3CCNCC3)ccc2[nH]1`, the midpoint of inhibition in the data set filed under Homo sapiens, the IC50, lay at 12 nM. In data set [1], this compound gave an ED50 of 0.13 nM. The Binding at Albumin [2] stood at 57%.
Turning to `O=C(Cc1c[nH]c2ccc(OCC3CCNCC3)cc12)NC[C@H](NS(=O)(=O)c1ccccc1)C(=O)O`, the Binding entry on Albumin [3] was “Insoluble”. Besides, in the data set listed under Homo sapiens, 5700 nM corresponded to half-maximal inhibition (IC50).
Compound `O=C(NC[C@H](NS(=O)(=O)c1cccnc1)C(=O)O)c1cc2cc(OCC3CCNCC3)ccc2[nH]1` gave an IC50 in the data set listed under Homo sapiens of 12 nM. The compound also displayed an ED50 in data set [1] of 0.07 nM.
In the data set listed under Homo sapiens, `O=C(NC[C@H](NS(=O)(=O)c1ccccc1)C(=O)O)c1cc2cc(OCCC3CCNCC3)ccc2[nH]1` displayed a half-maximal inhibitory concentration (IC50) of 8 nM. Moreover, the ED50 in data set [1] came to 0.056 nM. At Albumin [2], this compound showed a Binding of 76%.
In the case of `Cn1c(C(=O)NC[C@H](NS(=O)(=O)c2ccccc2)C(=O)O)cc2cc(OCCC3CCNCC3)ccc21`, in the data set listed under Homo sapiens, the IC50 was determined as 21 nM. On Albumin [2], the Binding is given as 94%.
On to `Cc1ccc(S(=O)(=O)N[C@@H](CNC(=O)c2cc3cc(OCC4CCNCC4)ccc3[nH]2)C(=O)O)cc1`, for which, in the data set filed under Homo sapiens, the midpoint of inhibition, the IC50, lay at 6 nM. The ED50 in data set [1] was determined as 0.06 nM. The compound further gave a Binding on Albumin [2] of 85%.
For `O=C(O)CCNC(=O)c1cc2cc(OCC3CCNCC3)ccc2[nH]1` the same measures were 1000 nM, 170 nM and 52%.
As to `O=C(NC[C@H](NS(=O)(=O)c1ccccc1)C(=O)O)c1cc2cc(OCC3CCNCC3)ccc2n1Cc1ccccc1`, the Binding entry at Albumin [3] is “Insoluble”. The compound further came in with a concentration for half-maximal inhibition (IC50) in the data set listed under Homo sapiens of 150 nM.
`O=C(NC[C@H](NS(=O)(=O)c1ccccc1)C(=O)O)c1cc2cc(OCCn3ccnc3)ccc2[nH]1` showed an IC50 in the data set listed under Homo sapiens of 45 nM. Also, the ED50 in data set [1] was 0.28 nM. On Albumin [2], this compound had a Binding of 98%.
For `O=C(NC[C@H](NS(=O)(=O)c1ccccc1)C(=O)O)c1cc2cc(OCCCc3c[nH]cn3)ccc2[nH]1` the same measures were 100 nM, 2 nM and 98%.
For `O=C(NC[C@H](NS(=O)(=O)c1ccccc1)C(=O)O)c1cc2ccc(OCC3CCNCC3)cc2[nH]1` the same measures were 15 nM, 0.49 nM and 57%.
`O=C(O)CC(NC(=O)c1cc2cc(OCC3CCNCC3)ccc2[nH]1)c1cccnc1` (stereo not given) came in with a concentration for half-maximal inhibition (IC50) in the data set filed under Homo sapiens of 810 nM. On Albumin [2], the Binding was 47%.
In the data set filed under Homo sapiens, `O=C(NC[C@H](NS(=O)(=O)c1ccccc1)C(=O)O)c1cc2cc(OCc3ccncc3)ccc2[nH]1` showed an IC50 of 280 nM. The compound also came in with an ED50 in data set [1] of 0.25 nM. In addition, the Binding at Albumin [2] worked out at 99%.
The compound `O=C(NC[C@H](NS(=O)(=O)c1ccccc1)C(=O)O)c1cc2cc(OCC3CCNCC3)ccc2[nH]1` gave an IC50 in the data set listed under Homo sapiens of 13 nM. In data set [1], this compound had an ED50 of 0.099 nM. The Binding on Albumin [2] was found to be 66%.
In the data set listed under Homo sapiens, `CC1(C)C2CCC1(CS(=O)(=O)N[C@@H](CNC(=O)c1cc3cc(OCC4CCNCC4)ccc3[nH]1)C(=O)O)C(=O)C2` (stereo not given in full) displayed a half-maximal inhibitory concentration (IC50) of 17 nM. The ED50 in data set [1] is 0.04 nM. At Albumin [2], this compound had a Binding of 63%.
On to `Cn1c(C(=O)NC[C@H](NS(=O)(=O)c2ccccc2)C(=O)O)cc2cc(OCC3CCNCC3)ccc21`, for which 15 nM corresponded to half-maximal inhibition in the data set filed under Homo sapiens (IC50). On Albumin [2], this compound displayed a Binding of 94%.
For `Nc1cc(COc2ccc3[nH]c(C(=O)NC[C@H](NS(=O)(=O)c4ccccc4)C(=O)O)cc3c2)ccn1`, the IC50 in the data set listed under Homo sapiens is 45 nM. This compound had an ED50 in data set [1] of 0.07 nM. Besides, the Binding at Albumin [2] stood at 99%.
